The record followed here is the NIST ThermoML archive (doi:10.1021/acs.jced.8b01135).

For this series the following is noted: 102 kPa, Liquid; for speed of sound: Frequency=3 MHz, Single path-length method; for mass density: Vibrating tube method; for viscosity: Concentric cylinders viscometry.

Each structure is given as a SMILES string. “And” between values parts separate entries of the source, which are not always exact repeats. Equal values may be shown once. Numbers after ± are expanded uncertainties.

By speed of sound is commonly meant the propagation velocity of pressure waves in the medium. As usually defined, the mass density is mass per unit of volume. One may read the viscosity as the internal friction of a fluid under shear. Take `CCCCCCCC1CCCCC1` [heptylcyclohexane]: the speed of sound (288.15 K) stood at 1393.6 ± 0.9 m/s; the speed of sound (293.15 K) was 1374.2 ± 0.9 m/s; the speed of sound (298.15 K) was 1355.1 ± 0.9 m/s; the speed of sound (303.15 K) was 1336.1 ± 0.9 m/s; the speed of sound (313.15 K) is 1298.8 ± 0.9 m/s; the speed of sound (323.15 K) was 1262.2 ± 0.9 m/s. Also, the speed of sound (333.15 K) was found to be 1226.7 ± 0.9 m/s. In addition, the mass density by setting is: (288.15 K) 814.51 ± 0.71 kg/m3; (293.15 K) 811 ± 0.71 kg/m3; (298.15 K) 807.49 ± 0.71 kg/m3; (303.15 K) 803.99 ± 0.71 kg/m3 and 803.98 ± 0.71 kg/m3; (313.15 K) 796.95 ± 0.71 kg/m3; (323.15 K) 789.91 ± 0.71 kg/m3. The mass density (333.15 K) is 782.85 ± 0.71 kg/m3. The viscosity (293.15 K) is listed as 2.8 ± 0.03 mPa·s; the viscosity (303.15 K) is reported as 2.25 ± 0.03 mPa·s; the viscosity (313.15 K) came to 1.85 ± 0.03 mPa·s; the viscosity (323.15 K) is reported as 1.55 ± 0.03 mPa·s; the viscosity (333.15 K) was 1.31 ± 0.03 mPa·s.
Consider `CCCCCCC1CCCCC1` [hexylcyclohexane], for which the speed of sound is reported as 1380.4 ± 1.4 m/s (288.15 K); 1360.9 ± 1.4 m/s (293.15 K); 1341.4 ± 1.4 m/s (298.15 K); 1322.1 ± 1.4 m/s (303.15 K); 1284.2 ± 1.4 m/s (313.15 K); 1247.1 ± 1.4 m/s (323.15 K). Further, the speed of sound (333.15 K) is recorded as 1211 ± 1.4 m/s. Besides, the mass density (288.15 K) was 811.34 ± 0.75 kg/m3; the mass density (293.15 K) stood at 807.76 ± 0.75 kg/m3; the mass density (298.15 K) stood at 804.19 ± 0.75 kg/m3; the mass density (303.15 K) came out at 800.61 ± 0.75 kg/m3; the mass density (313.15 K) came to 793.43 ± 0.75 kg/m3; the mass density (323.15 K) is given as 786.25 ± 0.75 kg/m3. For the same compound, the mass density (333.15 K) came out at 779.05 ± 0.75 kg/m3. Moreover, the viscosity is reported as 2.19 ± 0.03 mPa·s (293.15 K); 1.79 ± 0.03 mPa·s (303.15 K); 1.52 ± 0.03 mPa·s (313.15 K); 1.3 ± 0.03 mPa·s (323.15 K); 1.12 ± 0.03 mPa·s (333.15 K).
Turning to `CCCCCCCCC1CCCCC1` [octylcyclohexane], the speed of sound is 1405.5 ± 1 m/s (288.15 K); 1386.4 ± 1 m/s (293.15 K); 1367.4 ± 1 m/s (298.15 K); 1348.6 ± 1 m/s (303.15 K); 1311.6 ± 1 m/s (313.15 K); 1275.5 ± 1 m/s (323.15 K). Also, under “333.15 K”, the speed of sound stood at 1240.3 ± 1 m/s. The mass density was 817.58 ± 0.72 kg/m3 (288.15 K); 814.13 ± 0.72 kg/m3 (293.15 K); 810.67 ± 0.72 kg/m3 (298.15 K); 807.21 ± 0.72 kg/m3 and 807.2 ± 0.72 kg/m3 (303.15 K); 800.28 ± 0.72 kg/m3 (313.15 K); 793.35 ± 0.72 kg/m3 (323.15 K). Moreover, for the setting “333.15 K”, the mass density is 786.41 ± 0.72 kg/m3. Further, the viscosity was determined as 3.52 ± 0.04 mPa·s (293.15 K); 2.79 ± 0.03 mPa·s (303.15 K); 2.26 ± 0.03 mPa·s (313.15 K); 1.87 ± 0.03 mPa·s (323.15 K); 1.57 ± 0.03 mPa·s (333.15 K).
Take `CCCCCC1CCCCC1` [pentylcyclohexane]: the speed of sound reads like this: (288.15 K) 1365.8 ± 1.1 m/s; (293.15 K) 1346 ± 1.1 m/s; (298.15 K) 1326.4 ± 1.1 m/s; (303.15 K) 1306.7 ± 1.1 m/s; (313.15 K) 1268.2 ± 1.1 m/s; (323.15 K) 1230.5 ± 1.1 m/s. Further, the speed of sound (333.15 K) came out at 1193.5 ± 1.1 m/s. Also, the mass density is recorded as 807.78 ± 0.72 kg/m3 (288.15 K); 804.13 ± 0.72 kg/m3 (293.15 K); 800.48 ± 0.72 kg/m3 (298.15 K); 796.82 ± 0.72 kg/m3 (303.15 K); 789.49 ± 0.72 kg/m3 (313.15 K); 782.14 ± 0.72 kg/m3 (323.15 K). In addition, for the setting “333.15 K”, the mass density is listed as 774.75 ± 0.72 kg/m3. In addition, the viscosity reads like this: (293.15 K) 1.69 ± 0.03 mPa·s; (303.15 K) 1.43 ± 0.03 mPa·s; (313.15 K) 1.21 ± 0.03 mPa·s; (323.15 K) 1.05 ± 0.03 mPa·s; (333.15 K) 0.914 ± 0.031 mPa·s.
